Results: publication PMC11788587, “Validating Low‐Dose Iohexol as a Marker for Glomerular Filtration Rate by In Vitro and In Vivo Studies” (Clinical and Translational Science, 2025)

How the values were obtained:
Assay type in all cases: in vitro ADME
Conditions in all cases: 10 μM iohexol, median (95% CI)
hOCT2 = molecular target: T1, hOCT2 (Homo sapiens, UniProt O15244); assay: Substrate assessment: iohexol uptake in 293 cells expressing hOCT2 vs control
T1 construct: expressed in transfected cells; host or cells: HEK-293 (293) cells, pEBTetD plasmid, doxycycline-induced
T1 sequence (O15244 1-555): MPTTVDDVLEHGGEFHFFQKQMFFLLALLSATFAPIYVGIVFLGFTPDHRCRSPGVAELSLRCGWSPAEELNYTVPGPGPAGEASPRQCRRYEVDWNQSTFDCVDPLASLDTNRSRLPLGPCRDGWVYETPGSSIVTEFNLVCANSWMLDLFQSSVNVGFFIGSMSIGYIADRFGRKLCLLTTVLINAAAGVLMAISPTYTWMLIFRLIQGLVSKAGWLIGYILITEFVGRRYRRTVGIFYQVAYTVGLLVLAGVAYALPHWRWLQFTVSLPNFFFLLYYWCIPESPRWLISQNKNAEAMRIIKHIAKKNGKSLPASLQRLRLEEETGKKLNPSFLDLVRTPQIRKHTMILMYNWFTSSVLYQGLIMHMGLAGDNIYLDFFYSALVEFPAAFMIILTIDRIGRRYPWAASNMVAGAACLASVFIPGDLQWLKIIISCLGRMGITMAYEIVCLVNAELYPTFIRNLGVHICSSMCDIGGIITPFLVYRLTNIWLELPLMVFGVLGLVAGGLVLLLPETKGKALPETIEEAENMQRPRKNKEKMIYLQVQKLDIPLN
From the text: (§1) We characterized the inhibitory potential of iohexol on major drug transporters recommended by regulatory agencies, which were previously assessed in a clinical transporter phenotyping cocktail study. These transporters include hOAT1, hOAT3, hOCT1, hOCT2, hMATE1, hMATE2K, human organic anion transporter polypeptides (hOATP)1B1, hOATP1B3, and human multidrug resistance protein (hMDR)1. Additionally, we investigated whether iohexol is a substrate for any of the renal transporters among these, including hOAT1/3, hOCT1/2, and hMATE1/2K. Cell‐based uptake assays were used to assess the activities of hOAT1/3, hOCT1/2, hMATE1/2K, and hOATP1B1/1B3. Inside‐out membrane vesicle uptake assays were used to evaluate the activity of hMDR1.
(§2) For substrate assessments, iohexol was incubated with stably transfected HEK‐293 cells expressing one of the following transporters: hOAT1, hOAT3, hOCT1, hOCT2, hMATE1, or hMATE2K, as well as with control cells lacking transporter expression. Stably transfected cell lines containing pEBTetD plasmids with wild‐type human transporter cDNAs were generated as previously described. Transporter expression was induced by adding 1 μg/mL doxycycline to the growth medium for at least 20 h. Iohexol would be considered a substrate for these transporters if: (1) the ratio of iohexol uptake in cells expressing the transporter to that in control cells was ≥ 2, and (2) a known inhibitor of the transporter reduced iohexol uptake to ≤ 50% at concentrations ≥ 10 times its inhibition constant or half‐maximal inhibitory concentration.
(§3) Uptake assays were performed using stably transfected 293 cells, with or without the expression of one of the following transporters: hOAT1, hOAT3, hOCT1, hOCT2, hMATE1, or hMATE2K, as previously described.^1
(§4) For the substrate assessment, cells were incubated with 10 µM iohexol for 10 minutes and 30 minutes for each transporter. Inhibition assays were performed using specific standard substrates for each transporter: 10 µM para-aminohippuric acid (PAH) for hOAT1, 3 µM estrone-3-sulfate (E3S) for hOAT3, 50 µM metformin for hOCT1, 5 µM metformin for hOCT2, and 3 µM 1-methyl-4-phenylpyridinium (MPP+) for hMATE1 and hMATE2K. […]
(§5) R version 4.2.1 (R Foundation for Statistical Computing, Vienna, Austria) was used for statistical evaluations and data visualization. The data analysis approach for the in vitro study was detailed by Hsin CH et al..^1 In brief, for transport assays, the initial uptake rate was calculated by normalizing the substrate concentration to both the protein concentration and the incubation time for each dish or well. The transporter-mediated uptake rate (net uptake) was determined by performing an element-wise subtraction of uptake rates from different conditions. […]

hOAT3 = molecular target: T2, hOAT3 (Homo sapiens, UniProt Q8TCC7); assay: Substrate assessment: iohexol uptake in 293 cells expressing hOAT3 vs control
T2 construct: expressed in transfected cells; host or cells: HEK-293 (293) cells, pEBTetD plasmid, doxycycline-induced
T2 sequence (Q8TCC7 1-542): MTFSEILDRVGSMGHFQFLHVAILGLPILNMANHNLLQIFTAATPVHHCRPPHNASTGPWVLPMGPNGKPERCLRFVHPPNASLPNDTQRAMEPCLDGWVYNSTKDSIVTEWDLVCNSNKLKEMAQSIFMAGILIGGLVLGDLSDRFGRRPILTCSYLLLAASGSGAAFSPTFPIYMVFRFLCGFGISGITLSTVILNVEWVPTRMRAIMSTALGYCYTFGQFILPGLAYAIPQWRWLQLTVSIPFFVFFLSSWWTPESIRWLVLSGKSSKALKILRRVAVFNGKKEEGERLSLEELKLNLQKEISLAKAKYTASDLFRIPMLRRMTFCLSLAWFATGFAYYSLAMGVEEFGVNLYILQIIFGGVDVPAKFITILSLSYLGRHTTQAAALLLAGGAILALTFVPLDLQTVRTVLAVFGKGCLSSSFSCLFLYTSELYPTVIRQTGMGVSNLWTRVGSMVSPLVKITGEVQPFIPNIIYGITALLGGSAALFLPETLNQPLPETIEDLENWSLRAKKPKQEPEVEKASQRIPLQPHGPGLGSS
From the text: as §1, §2, §3, §4, §5

hMATE2K = molecular target: T3, hMATE2K (Homo sapiens, UniProt Q86VL8); assay: Substrate assessment: iohexol uptake in 293 cells expressing hMATE2K vs control
T3 construct: expressed in transfected cells; host or cells: HEK-293 (293) cells, pEBTetD plasmid, doxycycline-induced
From the text: as §1, §2, §3, §4, §5

T3 sequence (Q86VL8 1-566 isoform Q86VL8-3): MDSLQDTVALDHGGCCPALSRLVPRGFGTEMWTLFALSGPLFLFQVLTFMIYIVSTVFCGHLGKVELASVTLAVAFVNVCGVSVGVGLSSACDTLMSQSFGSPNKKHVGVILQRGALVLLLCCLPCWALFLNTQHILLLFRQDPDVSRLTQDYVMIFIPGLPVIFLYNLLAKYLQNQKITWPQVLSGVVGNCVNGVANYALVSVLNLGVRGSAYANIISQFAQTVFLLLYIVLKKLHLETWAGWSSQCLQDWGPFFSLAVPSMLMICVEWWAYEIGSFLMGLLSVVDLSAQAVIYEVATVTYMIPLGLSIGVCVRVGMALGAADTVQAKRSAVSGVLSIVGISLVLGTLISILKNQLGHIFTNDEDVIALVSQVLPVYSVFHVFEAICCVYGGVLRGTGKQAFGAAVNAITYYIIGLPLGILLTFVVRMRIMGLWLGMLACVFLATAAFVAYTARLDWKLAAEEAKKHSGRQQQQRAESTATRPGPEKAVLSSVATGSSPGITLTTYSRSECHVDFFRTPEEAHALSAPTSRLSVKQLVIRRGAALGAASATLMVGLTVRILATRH

Differences in intracellular accumulation (expression on minus off) (hOCT2; 10 minutes): 1.3 (0.007 to 2.6) pmol/mg protein
Uptake ratio (transporter-expressing vs non-expressing cells) (hOCT2; 10 minutes): 1.1 (1 to 1.2)
Differences in intracellular accumulation (expression on minus off) (hOCT2; 30 minutes): 1.5 (-1.4 to 2.9) pmol/mg protein
Uptake ratio (transporter-expressing vs non-expressing cells) (hOCT2; 30 minutes): 1.1 (0.9 to 1.3)
Differences in intracellular accumulation (expression on minus off) (hOAT3; 10 minutes): 0.6 (0.1 to 2) pmol/mg protein
Uptake ratio (transporter-expressing vs non-expressing cells) (hOAT3; 10 minutes): 1.1 (1 to 1.4)
Differences in intracellular accumulation (expression on minus off) (hOAT3; 30 minutes): 0.89 (0.19 to 1.5) pmol/mg protein
Uptake ratio (transporter-expressing vs non-expressing cells) (hOAT3; 30 minutes): 1.2 (1.1 to 1.3)
Differences in intracellular accumulation (expression on minus off) (hMATE2K; 10 minutes): -0.36 (-1.1 to 0.24) pmol/mg protein
Uptake ratio (transporter-expressing vs non-expressing cells) (hMATE2K; 10 minutes): 0.95 (0.81 to 1.1)
Differences in intracellular accumulation (expression on minus off) (hMATE2K; 30 minutes): 0.62 (-0.38 to 1.5) pmol/mg protein
Uptake ratio (transporter-expressing vs non-expressing cells) (hMATE2K; 30 minutes): 1.1 (0.93 to 1.4)
Structure (SMILES): CC(=O)N(CC(O)CO)c1c(I)c(C(=O)NCC(O)CO)c(I)c(C(=O)NCC(O)CO)c1I (stereo not drawn) [iohexol]
